# How the values were obtained:
# [1] = Aqueous solubility of the compound at pH 7; assay type: physicochemical
# [2] = Intrinsic clearance in rat liver microsomes; assay type: ADME, microsome; settings: read-out: CLH
# [3] = Plasma concentration in Wistar rat at 100 mg/kg, po measured after 1 hr; assay type: ADME, organism-based
# [4] = Fraction unbound in Wistar rat plasma at 100 mg/kg, po measured after 1 hr; assay type: ADME, organism-based; settings: in vivo
# [5] = Drug level in Wistar rat brain at 100 mg/kg, po measured after 1 hr; assay type: ADME, organism-based; settings: read-out: Drug uptake
# [6] = Drug level in Wistar rat CSF at 100 mg/kg, po measured after 1 hr; assay type: ADME, organism-based, Cerebrospinal fluid; settings: read-out: Drug uptake
# [7] = Plasma concentration in Wistar rat at 10 mg/kg, po measured after 1 hr; assay type: ADME, organism-based
# [8] = Fraction unbound in Wistar rat plasma at 10 mg/kg, po measured after 1 hr; assay type: ADME, organism-based; settings: in vivo
# [9] = Drug level in Wistar rat brain at 10 mg/kg, po measured after 1 hr; assay type: ADME, organism-based; settings: read-out: Drug uptake
# [10] = Drug level in Wistar rat CSF at 10 mg/kg, po measured after 1 hr; assay type: ADME, organism-based, Cerebrospinal fluid; settings: read-out: Drug uptake
Structure (SMILES),solubility [1] [µg/mL],microsomal CLint [2] [µL/min/mg],concentration at 1 h [3] [nM],Cp(f) [4] [nM],concentration at 1 h [5] [nM],concentration at 1 h [6] [nM],concentration at 1 h [7] [nM],Cp(f) [8] [nM],concentration at 1 h [9] [µM],concentration at 1 h [10] [nM]
Cn1c(Cl)c2c(c1C(=O)NCc1ccncc1OCC(F)(F)F)CCC(C)(C)C2,1,645,5210,5.2,12100,23,,,,
Cn1c(Cl)c2c(c1C(=O)NCc1ncccc1N1CC[C@H](F)C1)CCC(C)(C)C2,< 1,,,,,,,,,
CC(C)OCc1ccccc1CNC(=O)c1c2c(c(Cl)n1C)CC(C)(C)CC2,< 1,> 1250,397,< 0.4,436,< 0.7,,,,
Cn1c(Cl)c2c(c1C(=O)NCc1cccnc1OCC(F)(F)F)CCC(C)(C)C2,< 1,420,,,,,353,< 0.35,4.72,6
Cc1onc(CNC(=O)c2c3c(c(Cl)n2C)CC(C)(C)CC3)c1Cn1cccn1,7,> 1250,530,1.6,1020,17,,,,

# — ChEMBL document CHEMBL4177630, “Discovery and evaluation of Cav3.2-selective T-type calcium channel blockers” (Bioorg Med Chem Lett, 2017)
